Laboratory results from ChEMBL document CHEMBL5376002, “A Hybrid Antimicrobial Peptide Targeting Staphylococcus aureus with a Dual Function of Inhibiting Quorum Sensing Signaling and an Antibacterial Effect” (J Med Chem, 2023).
pKd: −log10 of the molar value. In brackets after ≈: the same amount, converted by molar mass. Activity calls are given as the source filed them. The rule behind the calls is not given here. Numbered stars: 1 amine (or outer) side, 2 acyl side, 3 side chain; on linkers, the order of the positions; unused ones are H or OH. Bridge positions count the residues as written; N and C are the ends. Square brackets hold non-standard residues; d marks the D form. Peptide text beside a SMILES is read from it. I, II: the chains in the order shown. X1 = O=C1CC([*:2])C(=O)N1CCCCCC(=O)[*:1]; Dab = NCC[C@H](N)C(=O)O

Experiments:
[1] = system: Staphylococcus saprophyticus; experiment: Antibacterial activity against Staphylococcus saprophyticus ATCC BAA-750 assessed as inhibition of bacterial growth incubated for 18 to 24 hrs; type: functional; conditions: time 18-24 hrs
[2] = Binding affinity to AgrC-I extra-loop-I (unknown origin) assessed as dissociation constant incubated for 10 mins by isothermal titration calorimetry analysis
Streptococcus pneumoniae [3] = experiment: Bactericidal activity against Streptococcus pneumoniae ATCC 49619 assessed as inhibition of bacterial growth incubated for 18 to 24 hrs; type: functional; conditions: time 18-24 hrs
[4] = system: Staphylococcus epidermidis; experiment: Antibacterial activity against Staphylococcus epidermidis ATCC 12228 assessed as inhibition of bacterial growth incubated for 18 to 24 hrs; type: functional; conditions: time 18-24 hrs
Staphylococcus aureus [5] = experiment: Bactericidal activity against Staphylococcus aureus ATCC 43300 assessed as inhibition of bacterial growth incubated for 18 to 24 hrs; type: functional; conditions: time 18-24 hrs
Homo sapiens [6] = organism: Homo sapiens; experiment: Binding affinity to AgrC-I extra-loop-III (unknown origin) assessed as change in entropy incubated for 10 mins by isothermal titration calorimetry analysis
Escherichia coli [7] = experiment: Bactericidal activity against Escherichia coli ATCC 25922 assessed as inhibition of bacterial growth incubated for 18 to 24 hrs; type: functional; conditions: time 18-24 hrs
Homo sapiens [8] = organism: Homo sapiens; experiment: Binding affinity to AgrC-I extra-loop-II (unknown origin) assessed as gibbs free energy change incubated for 10 mins by isothermal titration calorimetry analysis
Homo sapiens [9] = organism: Homo sapiens; experiment: Binding affinity to AgrC-I extra-loop-III (unknown origin) assessed as gibbs free energy change incubated for 10 mins by isothermal titration calorimetry analysis
[10] = Binding affinity to AgrC-I extra-loop-III (unknown origin) assessed as dissociation constant incubated for 10 mins by isothermal titration calorimetry analysis
[11] = Binding affinity to AgrC-I extra-loop-II (unknown origin) assessed as change in enthalpy incubated for 10 mins by isothermal titration calorimetry analysis
Staphylococcus aureus [12] = experiment: Antibacterial activity against Staphylococcus aureus ATCC 6538p assessed as inhibition of bacterial growth incubated for 18 to 24 hrs; type: functional; conditions: time 18-24 hrs
[13] = Binding affinity to AgrC-I extra-loop-III (unknown origin) assessed as change in enthalpy incubated for 10 mins by isothermal titration calorimetry analysis
Streptococcus mutans [14] = experiment: Bactericidal activity against Streptococcus mutans ATCC 25175 assessed as inhibition of bacterial growth incubated for 18 to 24 hrs; type: functional; conditions: time 18-24 hrs
Staphylococcus aureus [15] = experiment: Bactericidal activity against Staphylococcus aureus ATCC 12600 assessed as inhibition of bacterial growth incubated for 18 to 24 hrs; type: functional; conditions: time 18-24 hrs
Escherichia coli [16] = experiment: Antibacterial activity against Escherichia coli ATCC 25922 assessed as inhibition of bacterial growth incubated for 18 to 24 hrs; type: functional; conditions: time 18-24 hrs
Streptococcus mutans [17] = experiment: Bactericidal activity against Streptococcus mutans UA159 assessed as inhibition of bacterial growth incubated for 18 to 24 hrs; type: functional; conditions: time 18-24 hrs
[18] = Binding affinity to AgrC-I extra-loop-II (unknown origin) assessed as dissociation constant incubated for 10 mins by isothermal titration calorimetry analysis
Staphylococcus aureus [19] = experiment: Bactericidal activity against Staphylococcus aureus ATCC 6538p assessed as inhibition of bacterial growth incubated for 18 to 24 hrs; type: functional; conditions: time 18-24 hrs
Homo sapiens [20] = organism: Homo sapiens; experiment: Binding affinity to AgrC-I extra-loop-I (unknown origin) assessed as gibbs free energy change incubated for 10 mins by isothermal titration calorimetry analysis
[21] = system: Staphylococcus saprophyticus; experiment: Bactericidal activity against Staphylococcus saprophyticus ATCC BAA-750 assessed as inhibition of bacterial growth incubated for 18 to 24 hrs; type: functional; conditions: time 18-24 hrs
Homo sapiens [22] = organism: Homo sapiens; experiment: Binding affinity to AgrC-I extra-loop-II (unknown origin) assessed as change in entropy incubated for 10 mins by isothermal titration calorimetry analysis
[23] = system: Staphylococcus epidermidis; experiment: Bactericidal activity against Staphylococcus epidermidis ATCC 12228 assessed as inhibition of bacterial growth incubated for 18 to 24 hrs; type: functional; conditions: time 18-24 hrs
Streptococcus pneumoniae [24] = experiment: Antibacterial activity against Streptococcus pneumoniae ATCC 49619 assessed as inhibition of bacterial growth incubated for 18 to 24 hrs; type: functional; conditions: time 18-24 hrs
Streptococcus mutans [25] = experiment: Antibacterial activity against Streptococcus mutans ATCC 25175 assessed as inhibition of bacterial growth incubated for 18 to 24 hrs; type: functional; conditions: time 18-24 hrs
Staphylococcus aureus [26] = experiment: Antibacterial activity against Staphylococcus aureus ATCC 12600 assessed as inhibition of bacterial growth incubated for 18 to 24 hrs; type: functional; conditions: time 18-24 hrs
Streptococcus mutans [27] = experiment: Antibacterial activity against Streptococcus mutans UA159 assessed as inhibition of bacterial growth incubated for 18 to 24 hrs; type: functional; conditions: time 18-24 hrs
[28] = Binding affinity to AgrC-I extra-loop-I (unknown origin) assessed as change in enthalpy incubated for 10 mins by isothermal titration calorimetry analysis
Homo sapiens [29] = organism: Homo sapiens; experiment: Binding affinity to AgrC-I extra-loop-I (unknown origin) assessed as change in entropy incubated for 10 mins by isothermal titration calorimetry analysis
Staphylococcus aureus [30] = experiment: Inhibition of biofilm formation in Staphylococcus aureus at 0.78 to 1.56 uM incubated for 24 hrs by crystal violet staining based analysis; type: functional, organism-based; conditions: dose 0.78-1.56 µM
Staphylococcus aureus [31] = experiment: Antibacterial activity against Staphylococcus aureus ATCC 43300 assessed as inhibition of bacterial growth incubated for 18 to 24 hrs; type: functional; conditions: time 18-24 hrs
RAW264.7 = experiment: Cytotoxicity against mouse RAW264.7 cells assessed as cell viability incubated for 48 hrs by MTT assay; type: functional

| Structure (SMILES) | MIC [1] | MBC (Streptococcus pneumoniae [3]) | MIC [4] | MBC (Staphylococcus aureus [5]) | MBC (Escherichia coli [7]) | MIC (Staphylococcus aureus [12]) | MBC (Streptococcus mutans [14]) | MBC (Staphylococcus aureus [15]) | MIC (Escherichia coli [16]) | MBC (Streptococcus mutans [17]) | MBC (Staphylococcus aureus [19]) | MBC [21] | MBC [23] | MIC (Streptococcus pneumoniae [24]) | MIC (Streptococcus mutans [25]) | MIC (Staphylococcus aureus [26]) | MIC (Streptococcus mutans [27]) | MIC (Staphylococcus aureus [31]) | also measured |
| --- | --- | --- | --- | --- | --- | --- | --- | --- | --- | --- | --- | --- | --- | --- | --- | --- | --- | --- | --- |
| CC[C@H](C)[C@H](N)C(=O)N[C@@H](CC(N)=O)C(=O)N[C@@H](CCN)C(=O)N[C@@H](C)C(=O)N[C@@H](Cc1ccccc1)C(=O)N[C@@H](CC(C)C)C(=O)N[C@@H](CC(C)C)C(=O)NCC(=O)NCC(=O)NCC(=O)N[C@H](C(=O)N[C@@H](CCCCN)C(=O)N[C@@H](CC(N)=O)C(=O)N[C@@H](CC(C)C)C(=O)N[C@@H](Cc1c[nH]c2ccccc12)C(=O)N[C@@H](CCCCN)C(=O)N[C@@H](CCCCN)C(=O)N[C@@H](CCSC)C(=O)N[C@H](C(=O)N[C@@H](CCCCN)C(=O)N[C@@H](CC(C)C)C(=O)N[C@@H](Cc1c[nH]c2ccccc12)C(=O)N[C@@H](Cc1ccc(O)cc1)C(=O)O)[C@@H](C)CC)[C@@H](C)CC (H-IN[Dab]AFLLGGGIKNLWKKMIKLWY-OH) | 3.13 µM (≈ 8.47 µg/mL) | 12.5 µM (≈ 33.8 µg/mL) | 1.56 µM (≈ 4.22 µg/mL) | 12.5 µM (≈ 33.8 µg/mL) | 6.25 µM (≈ 16.9 µg/mL) | 3.13 µM (≈ 8.47 µg/mL) | 6.25 µM (≈ 16.9 µg/mL) | 6.25 µM (≈ 16.9 µg/mL) | 3.13 µM (≈ 8.47 µg/mL) | 12.5 µM (≈ 33.8 µg/mL) | 6.25 µM (≈ 16.9 µg/mL) | 3.13 µM (≈ 8.47 µg/mL) | 3.13 µM (≈ 8.47 µg/mL) | 6.25 µM (≈ 16.9 µg/mL) | 6.25 µM (≈ 16.9 µg/mL) | 3.13 µM (≈ 8.47 µg/mL) | 6.25 µM (≈ 16.9 µg/mL) | 6.25 µM (≈ 16.9 µg/mL) | pKd [2]: 8.69; -TdeltaS (Homo sapiens [6]): 70.6 kcal/mol; deltaG (Homo sapiens [8]): -3.31 kcal/mol; deltaG (Homo sapiens [9]): -9.36 kcal/mol; pKd [10]: 6.86; deltaH [11]: -15.6 kcal/mol; deltaH [13]: -80 kcal/mol; pKd [18]: 2.42; deltaG (Homo sapiens [20]): -11.8 kcal/mol; -TdeltaS (Homo sapiens [22]): 12.3 kcal/mol; deltaH [28]: 9.06 kcal/mol; -TdeltaS (Homo sapiens [29]): -20.9 kcal/mol; inhibition (Staphylococcus aureus [30]): Active |
| CC[C@H](C)[C@H](NC(=O)CNC(=O)CCCCCN1C(=O)CC(SC[C@H](N)C(=O)NCC(=O)NCC(=O)N[C@H](C(=O)N[C@@H](CC(N)=O)C(=O)N[C@H]2CCNC(=O)[C@H](CC(C)C)NC(=O)[C@H](CC(C)C)NC(=O)[C@H](Cc3ccccc3)NC(=O)[C@H](C)NC2=O)[C@@H](C)CC)C1=O)C(=O)N[C@@H](CCCCN)C(=O)N[C@@H](CC(N)=O)C(=O)N[C@@H](C)C(=O)N[C@@H](Cc1c[nH]c2ccccc12)C(=O)N[C@@H](CCCCN)C(=O)N[C@@H](C)C(=O)N[C@@H](CCSC)C(=O)N[C@H](C(=O)N[C@@H](CCCCN)C(=O)N[C@@H](C)C(=O)N[C@@H](Cc1c[nH]c2ccccc12)C(=O)N[C@@H](Cc1ccc(O)cc1)C(=O)O)[C@@H](C)CC (stereo partly specified) (I: GIKNAWKAMIKAWY-OH / II: H-CGGIN[Dab]AFLL; linker I:N-II:1 via X1; lactam II:6-II:C) | 6.25 µM (≈ 17.9 µg/mL) | 12.5 µM (≈ 35.8 µg/mL) | 3.13 µM (≈ 8.96 µg/mL) | 12.5 µM (≈ 35.8 µg/mL) | 6.25 µM (≈ 17.9 µg/mL) | 6.25 µM (≈ 17.9 µg/mL) | 3.13 µM (≈ 8.96 µg/mL) | 6.25 µM (≈ 17.9 µg/mL) | 6.25 µM (≈ 17.9 µg/mL) | 12.5 µM (≈ 35.8 µg/mL) | 6.25 µM (≈ 17.9 µg/mL) | 12.5 µM (≈ 35.8 µg/mL) | 6.13 µM (≈ 17.5 µg/mL) | 12.5 µM (≈ 35.8 µg/mL) | 3.13 µM (≈ 8.96 µg/mL) | 6.25 µM (≈ 17.9 µg/mL) | 6.25 µM (≈ 17.9 µg/mL) | 6.25 µM (≈ 17.9 µg/mL) | CC50 (RAW264.7): 105 µM |
| CC1(C)S[C@@H]2[C@H](NC(=O)[C@H](N)c3ccccc3)C(=O)N2[C@H]1C(=O)O [AMPICILLIN] | 1.56 µM (≈ 0.545 µg/mL) | 0.78 µM (≈ 0.273 µg/mL) | 0.39 µM (≈ 0.136 µg/mL) |  |  | 0.1 µM (≈ 0.0349 µg/mL) | 6.25 µM (≈ 2.18 µg/mL) | 0.19 µM (≈ 0.0664 µg/mL) | > 100 µM | 12.5 µM (≈ 4.37 µg/mL) | 0.19 µM (≈ 0.0664 µg/mL) | 1.56 µM (≈ 0.545 µg/mL) | 0.39 µM (≈ 0.136 µg/mL) | 0.78 µM (≈ 0.273 µg/mL) | 6.25 µM (≈ 2.18 µg/mL) | 0.1 µM (≈ 0.0349 µg/mL) | 12.5 µM (≈ 4.37 µg/mL) | > 100 µM |  |
